From PubChem BioAssay (NCI)
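How tested: cells in 96-well plates exposed to compound for 48 hours at five concentrations. TGI denotes the concentration required for complete inhibition of growth.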

What was measured:
Experiment in all cases: NCI anticancer screen, dose series, 48 h
[1] = system: 786-0 renal
[2] = system: A498 renal
[3] = system: A549 NSCLC
[4] = system: ACHN renal
[5] = system: BT-549 breast
[6] = system: CAKI-1 renal
[7] = system: CCRF-CEM leukemia
[8] = system: COLO 205 colon
[9] = system: DU-145 prostate
[10] = system: EKVX NSCLC
[11] = system: HCC-2998 colon
[12] = system: HCT-116 colon
[13] = system: HCT-15 colon
[14] = system: HL-60(TB) leukemia
[15] = system: HOP-62 NSCLC
[16] = system: HOP-92 NSCLC
[17] = system: HS 578T breast
[18] = system: HT29 colon
[19] = system: IGROV1 ovarian
[20] = system: K-562 leukemia
[21] = system: KM12 colon
[22] = system: LOX IMVI melanoma
[23] = system: M14 melanoma
[24] = system: MALME-3M melanoma
[25] = system: MCF7 breast
[26] = system: MDA-MB-231 breast
[27] = system: MDA-MB-435
[28] = system: MDA-N
[29] = system: MOLT-4 leukemia
[30] = system: NCI-H226 lung
[31] = system: NCI-H23 lung
[32] = system: NCI-H460 lung
[33] = system: NCI-H522 lung
[34] = system: NCI/ADR-RES ovarian
[35] = system: OVCAR-3 ovarian
[36] = system: OVCAR-4 ovarian
[37] = system: OVCAR-5 ovarian
[38] = system: OVCAR-8 ovarian
[39] = system: PC-3 prostate
[40] = system: RPMI-8226 leukemia
[41] = system: RXF 393 renal
[42] = system: SF-268 CNS
[43] = system: SF-295 CNS
[44] = system: SF-539 CNS
[45] = system: SK-MEL-2 melanoma
[46] = system: SK-MEL-28 melanoma
[47] = system: SK-MEL-5 melanoma
[48] = system: SK-OV-3 ovarian
[49] = system: SN12C renal
[50] = system: SNB-19 CNS
[51] = system: SNB-75 CNS
[52] = system: SR leukemia
[53] = system: SW-620 colon
[54] = system: T-47D breast
[55] = system: TK-10 renal
[56] = system: U251 CNS
[57] = system: UACC-257 melanoma
[58] = system: UACC-62 melanoma
[59] = system: UO-31 renal

How did the TGI [1] turn out when `CCN(CC)CCCNc1[nH]ncc2cc3c(nc4ccc(OC)cc43)c(C)c12` was run?
Its TGI is 15.4 µM.

What about the TGI [2] of the same compound?
Its TGI is 30.7 µM.

And the TGI [3]?
The TGI was 22.2 µM.

And the TGI [4]?
The TGI was 20.9 µM.

What about the TGI [5] of the same compound?
Its TGI is 30.9 µM.

What about the TGI [6] of the same compound?
Its TGI is 24.7 µM.

And the TGI [7]?
Its TGI is 16.5 µM.

What about the TGI [8] of the same compound?
Its TGI is 21.2 µM.

And the TGI [9]?
Its TGI is 15.9 µM.

What about the TGI [10] of the same compound?
Its TGI is 31.4 µM.

And the TGI [11]?
Its TGI is 18.8 µM.

And the TGI [12]?
The TGI was 13 µM.

What about the TGI [13] of the same compound?
Its TGI is 41.3 µM.

And the TGI [14]?
Its TGI is 0.0166 µM.

And the TGI [15]?
The TGI was 16.4 µM.

What about the TGI [16] of the same compound?
Its TGI is 29.8 µM.

And the TGI [17]?
The TGI was 28.5 µM.

And the TGI [18]?
Its TGI is 16.2 µM.

What about the TGI [19] of the same compound?
Its TGI is 19.5 µM.

And the TGI [20]?
The TGI was 16.3 µM.

What about the TGI [21] of the same compound?
Its TGI is 15.7 µM.

What about the TGI [22] of the same compound?
The TGI was 15.8 µM.

And the TGI [23]?
The TGI was 25.6 µM.

What about the TGI [24] of the same compound?
Its TGI is 28.3 µM.

What about the TGI [25] of the same compound?
Its TGI is 16.6 µM.

What about the TGI [26] of the same compound?
Its TGI is 21.2 µM.

And the TGI [27]?
The TGI was 23.1 µM.

And the TGI [28]?
The TGI was 22.3 µM.

And the TGI [29]?
Its TGI is 10.9 µM.

And the TGI [30]?
Its TGI is 22.6 µM.

And the TGI [31]?
The TGI was 24.6 µM.

What about the TGI [32] of the same compound?
Its TGI is 17 µM.

What about the TGI [33] of the same compound?
Its TGI is 17.4 µM.

What about the TGI [34] of the same compound?
Its TGI is > 100 µM.

And the TGI [35]?
Its TGI is 19.1 µM.

What about the TGI [36] of the same compound?
The TGI was 13.8 µM.

And the TGI [37]?
Its TGI is 24.8 µM.

What about the TGI [38] of the same compound?
The TGI was 18.9 µM.

And the TGI [39]?
The TGI was 16.5 µM.

And the TGI [40]?
Its TGI is 46.8 µM.

And the TGI [41]?
Its TGI is 17.7 µM.

What about the TGI [42] of the same compound?
Its TGI is > 48.1 µM.

And the TGI [43]?
Its TGI is 25.7 µM.

What about the TGI [44] of the same compound?
Its TGI is 15.2 µM.

And the TGI [45]?
The TGI was 33.9 µM.

And the TGI [46]?
The TGI was 30.8 µM.

And the TGI [47]?
The TGI was 29.4 µM.

And the TGI [48]?
Its TGI is 22.3 µM.

What about the TGI [49] of the same compound?
Its TGI is 18.7 µM.

And the TGI [50]?
The TGI was 18 µM.

What about the TGI [51] of the same compound?
The TGI was 23 µM.

And the TGI [52]?
Its TGI is 33.1 µM.

And the TGI [53]?
The TGI was 19.4 µM.

And the TGI [54]?
The TGI was 26.5 µM.

What about the TGI [55] of the same compound?
Its TGI is 28.8 µM.

What about the TGI [56] of the same compound?
The TGI was 16 µM.

And the TGI [57]?
Its TGI is 33.7 µM.

And the TGI [58]?
Its TGI is 35.8 µM.

What about the TGI [59] of the same compound?
The TGI was 23.8 µM.
